Measured values: patent publication US20250361252A1 (EVER Neuro Pharma GmbH, priority 2022, published 2025)

How the values were obtained:
[1] = in vivo; cited from earlier work
[2] = cited from earlier work
[3] = single dose; cited from earlier work
[4] = in NaCl solution; cited from earlier work
human hepatocytes = experiment: Metabolic stability / conversion to apomorphine on incubation with human hepatocytes

For `N[C@@H](Cc1ccc(O)c(O)c1)C(=O)O` [L-dopa], the plasma half-life [1] is listed as 60 to 90 min.
For `CN1CCc2cccc3c2[C@H]1Cc1ccc(O)c(O)c1-3` [apomorphine], the “incidence of nodule formation” value ([2]; subcutaneous infusion therapy, meta-analysis) is listed as 70%, the “patients terminating therapy because of irritations” value ([2]; subcutaneous infusion, within one year) is listed as 70% and the “duration of effect (mean)” value [3] is listed as 40 min. The solubility [4] was under 10000 µg/mL.
With “Apomorphine Monophosphate Calcium Salt [VIR-1-097-Ca]” the “solubility in water” value was “Reduced solubility in water”.
In the case of “Apomorphine Monophosphate Potassium Salt [VIR-1-097-K]”, the “solubility in water” value is reported as “highly soluble in water”.
In the case of apomorphine monophosphate, the “formation of apomorphine in cell-free control group” value (human hepatocytes; cell-free negative control) is reported as “no significant formation of apomorphine”, the “conversion of prodrug into apomorphine” value (human hepatocytes; human hepatocytes) is reported as “rapidly converted into apomorphine” and the “half-life of apomorphine monophosphate” value (human hepatocytes; human hepatocytes) is reported as 33 min. The “time of highest amount of apomorphine found” value (human hepatocytes; human hepatocytes) was 10 min, the “apomorphine monophosphate converted to apomorphine” value (human hepatocytes; human hepatocytes, within 10 min) was “about 30%” and the apomorphine monophosphate consumed (human hepatocytes; human hepatocytes, within 60 minutes) was “about 75%”.
